These results are taken from patent US5453426A, “Sulfur-containing xanthine derivatives as adenosine antagonists” (priority 1994, dated 1995).

The subject of one data set is A2 receptor. As to conditions: relative to 8-phenyltheophylline; cited from earlier work.
Another data set deals with A1 receptor. As to conditions: relative to 8-phenyltheophylline; cited from earlier work.
The subject of a further data set is cardiac depression. Particulars: background, ref 9b; cited from earlier work.
The subject of the next data set is tracheal relaxation. Particulars: background, ref 9a, cited from earlier work; for cardiac or behavioral stimulation: accompanying tracheal relaxation.
The target in a further data set is adenosine receptor. As to conditions: background; read-out: Ki-values as adenosine antagonists; cited from earlier work.
Data set [1] deals with A1 -adenosine receptors. Particulars: background; cited from earlier work.
Data set [2] addresses T1, A2 adenosine receptors (Rattus norvegicus, UniProt P30543). Further details: A2 -adenosine receptors in rat striatal membranes; from tissue; host or cells: rat striatum membranes. Particulars: cited from earlier work.
The target of the next data set is T2, A1 adenosine receptors (Rattus norvegicus, UniProt P25099).
T2 construct: A1 adenosine receptors in rat cerebral cortical membranes; from tissue; host or cells: rat cerebral cortex membranes
T2 sequence (P25099 1-326): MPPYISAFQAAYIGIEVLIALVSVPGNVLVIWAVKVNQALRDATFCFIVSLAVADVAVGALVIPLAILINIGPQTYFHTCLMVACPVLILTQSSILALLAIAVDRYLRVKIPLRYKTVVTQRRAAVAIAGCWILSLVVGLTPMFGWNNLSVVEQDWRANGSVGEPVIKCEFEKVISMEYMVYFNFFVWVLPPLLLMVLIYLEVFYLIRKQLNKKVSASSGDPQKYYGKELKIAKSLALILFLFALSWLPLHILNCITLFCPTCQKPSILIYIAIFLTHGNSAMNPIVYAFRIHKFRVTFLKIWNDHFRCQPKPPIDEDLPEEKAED
The data set is described as follows: Inhibition of binding of [3H]N6-phenylisopropyladenosine to A1 adenosine receptors in rat cerebral cortical membranes. Particulars: for Ki (A2)/Ki (A1): ratio of A2 (rat striatum) to A1 (rat cortex) Ki; for Ki: rat cortical membranes, [3H]PIA, single determination in triplicate or average of three ± S.E.M., read-out: Ki A1-receptors; for fold less potent at A1-receptors: 6-thio analog versus oxygen analog (CPX or DPX, 24).

Data set [3] addresses T1, A2 adenosine receptors. The data set is described as follows: Inhibition of binding of [3H]N-ethylcarboxamidoadenosine to A2-adenosine receptors in rat striatal membranes.
Description: Affinity at A1 - and A2 -adenosine receptors was measured in competitive binding assays, using as radioligands [^3 H]N^6 -phenylisopropyladenosine^17 (with rat cerebral cortical membranes) and [^3 H]5'-N-ethylcarboxamidoadenosine (with rat striatal membranes),^18 respectively.
N^6 -Cyclopentyladenosine was present at 50 nM to inhibit binding of the ligand at A1 -adenosine receptors. Inhibition of binding by a range of concentrations of xanthines was assessed in triplicate in at least three separate experiments. IC50 -values were converted to Ki-values by the method of Bruns et al,^18 using a conversion factor derived from the affinity of [^3 H]N-ethylcarboxamidoadenosine at A2 receptors and the Cheng-Prusoff equation.^19
Data set [4] is described as follows: Limit of solubility in the A2 binding assay. The format is physicochemical. As to conditions: binding assay medium. The text has this:
Thus, compound 22 is >285-fold A1 -selective in these binding assays.

Data set [5] addresses Nethylcarboxamidoadenosine-stimulated adenylat cyclase. As to conditions: PC12 cell membranes; printed in brackets in the A2 Ki column; ref 10b; read-out: Kb for inhibition of N-ethylcarboxamidoadenosine-stimulated adenylate cyclase; cited from earlier work.
The test system of data set [6] is A1 -adenosine receptors. As to conditions: ref 10a; cited from earlier work.
Where [7] appears, read: values taken from Bruns et al. (ref 18).

≈ marks a conversion by molar mass, not a printed value. Where two headings read alike, the source gives them in different places.

T1 sequence (P30543 whole entry): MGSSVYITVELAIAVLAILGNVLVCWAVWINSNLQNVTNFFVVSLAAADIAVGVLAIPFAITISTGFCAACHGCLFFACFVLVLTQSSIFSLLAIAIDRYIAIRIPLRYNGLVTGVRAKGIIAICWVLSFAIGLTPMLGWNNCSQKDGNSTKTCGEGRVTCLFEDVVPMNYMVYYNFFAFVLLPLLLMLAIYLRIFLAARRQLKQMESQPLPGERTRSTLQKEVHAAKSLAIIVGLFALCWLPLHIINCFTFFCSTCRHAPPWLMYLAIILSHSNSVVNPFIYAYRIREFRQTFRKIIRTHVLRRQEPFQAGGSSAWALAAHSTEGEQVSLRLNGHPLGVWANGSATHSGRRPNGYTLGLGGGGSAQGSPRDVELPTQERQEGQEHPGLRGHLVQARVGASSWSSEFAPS

In the case of `Cn1c(=O)c2sc(-c3ccccc3)nc2n(C)c1=O`, the “reduction of activity at an A2 receptor by thio-substitution” value in the data set with A2 receptor is given as approximately 100 fold. In the data set on A1 receptor, the “reduction of activity at an A1 receptor by thio-substitution” value is 1000 fold.
As for `Cn1c(=S)c2c(ncn2C)n(C)c1=O` [6-thiocaffeine], the cardiac effect entry in the data set on cardiac depression is listed as “cause cardiac depression rather than stimulation”. Besides, in the data set with tracheal relaxation, the “cardiac or behavioral stimulation” value is recorded as “without cardiac or behavioral stimulation” and the tracheal relaxation entry was “induce tracheal relaxation”.
For the molecule `Cn1c(=S)c2[nH]cnc2n(C)c1=O` [6-thiotheophylline], the cardiac effect result with cardiac depression is on record as “cause cardiac depression rather than stimulation”. Moreover, in the data set with tracheal relaxation, the “cardiac or behavioral stimulation” value is “without cardiac or behavioral stimulation” and the tracheal relaxation result is given as “induce tracheal relaxation”.
By Ki is commonly meant a measure of affinity in units of concentration, obtained from inhibition or displacement. On to `Cn1c(=O)c2[nH]cnc2n(C)c1=O` [Compound 1a, theophylline], for which the Ki at adenosine receptor is not below 10000 nM.
For `CCCn1c(=O)c2[nH]c(C3CCCC3)nc2n(CCC)c1=O` [Compound 2b, 8-cyclopentyl-1,3-dipropylxanthine], the “potency in binding at A1-adenosine receptors versus theophylline” value with A1 -adenosine receptors [1] is given as “more than four orders of magnitude more potent than theophylline”.
For the molecule `CCCn1c(=O)c2[nH]c(-c3ccc(OCC(=O)NCCN)cc3)nc2n(CCC)c1=O` [Compound 3, 8-(4-(2-amino-ethylaminocarbonylmethyloxy)phenyl)-1,3-dipropylxanthine], the “potency in binding at A1-adenosine receptors versus theophylline” value in the data set on A1 -adenosine receptors [1] is listed as “more than four orders of magnitude more potent than theophylline”.
Turning to `Cn1c(=O)c2[nH]c(-c3ccco3)nc2n(C)c1=O` [Compound 15, reference compound], the Ki on A2 adenosine receptors [2] (setting [7]) is 2780 nM. In addition, on A1 adenosine receptors, the “Ki (A2)/Ki (A1)” value was determined as 7.94.
For the molecule `Cn1c(=O)c2nc(-c3ccoc3)[nH]c2n(C)c1=O` [Compound 16, reference compound], at A2 adenosine receptors [2] (setting [7]), the inhibition constant (Ki) was 984 ± 70 nM. Also, the “Ki (A2)/Ki (A1)” value on A1 adenosine receptors was 13.6.
For orientation: solubility means the dissolved amount per volume that the medium holds. In the case of `CCCn1c(=O)c2[nH]c(-c3cccs3)nc2n(CCC)c1=S` [Compound 22, 1,3-Dipropyl-8-(2-thienyl)-2-thioxanthine], the inhibition constant Ki at A2 adenosine receptors [3] was more than 10000 nM. Further, on A2 adenosine receptors [3] (relative to the analogs named in the text), the “A2 affinity/potency, in words” value is “did not bind measurably to A2 -receptors at its limit of solubility”. This molecule also came in with a solubility in data set [4] of approximately 10 µM (≈ 3.34 µg/mL). Further, on A1 adenosine receptors (A1 (rat cortex) versus A2 (rat striatum) binding), the A1-selectivity is listed as more than 285 fold. In addition, the “A1-selectivity, in words” value on A1 adenosine receptors (A1 versus A2 binding, relative to oxygen analogs) is on record as “a greater margin of A1 -selectivity”. On A1 adenosine receptors, the Ki stood at 35.1 ± 6 nM and the “Ki (A2)/Ki (A1)” value is reported as more than 285.
With `CCCn1c(=O)c2[nH]c(-c3ccc(OCC(=O)NCCNC)cc3)nc2n(CCC)c1=O` [Compound 32], the Kb in data set [5] was 9.3 ± 2.1 nM.
Take `CCCn1c(=O)c2[nH]c(-c3ccc(OCC(=O)NCCNC(=O)CCCCCCC(=O)ON4C(=O)CCC4=O)cc3)nc2n(CCC)c1=O` [Compound 44]: the Ki at A2 adenosine receptors [2] (values taken from Jacobson et al. (ref 10)) was 207 ± 57 nM. Moreover, the “irreversible inhibitor of A1-adenosine receptors at concentrations” value in the data set with A1 -adenosine receptors [6] is on record as “greater than 50 nM”. Further, the “Ki (A2)/Ki (A1)” value on A1 adenosine receptors was found to be 56.
The molecule `CCCn1c(=S)c2[nH]c(C3CCCC3)nc2n(CCC)c1=O` [Compound 55, 8-cyclopentyl-1,3-dipropyl-6-thioxanthine] gave an inhibition constant Ki on A2 adenosine receptors [3] of 3360 nM. Besides, at A1 adenosine receptors, the “fold less potent at A1-receptors” value is on record as 17 fold, the inhibition constant (Ki) worked out at 15.5 ± 1.5 nM and the “Ki (A2)/Ki (A1)” value turned out to be 217.
With `Cn1c(=S)c2[nH]c(-c3ccccc3)nc2n(C)c1=O` [Compound 56], the inhibition constant (Ki) on A2 adenosine receptors [3] came out at 11300 nM; on A1 adenosine receptors, 1380 nM. Also, the “Ki (A2)/Ki (A1)” value at A1 adenosine receptors came to 8.18.
At A2 adenosine receptors [3], `CCn1c(=S)c2[nH]c(-c3ccccc3)nc2n(CC)c1=O` [Compound 57] registered an inhibition constant (Ki) of 3510 nM. For the same molecule, the “fold less potent at A2-receptors” value at A2 adenosine receptors [3] (6-thio analog 57 versus DPX, 24) was found to be 12 fold. Besides, at A1 adenosine receptors, the “fold less potent at A1-receptors” value was found to be 23 fold, the inhibition constant Ki stood at 1010 nM and the “Ki (A2)/Ki (A1)” value amounted to 3.47.
